The values that follow come from patent publication US20140179678A1, “METHODS OF TARGETED TREATMENT OF FRONTOTEMPORAL LOBAR DEGENERATION” (priority 2011, published 2014).

The subject of data set [1] is acetylation of histones in the brain. Nature of the data set: Acetylation of histones in the brain of mice, required free plasma exposure. Type of data set: in vivo.
Data set [2] can be described thus: Brain penetration (brain:plasma ratio of drug levels) after acute and repeated dosing. Type of data set: in vivo. To be noted: rodents.
For data set [3] the following is noted: cancer patients, oral; cited from earlier work.
In data set [4] the test system is progranulin protein in immortalized lymphoblasts from a normal human subject. Nature of the data set: Progranulin protein by western blot in immortalized lymphoblasts from a normal human subject. The format is cell-based. To be noted: 24 h. The method, then:
Cellular protein from immortalized (Epstein-Barr-Virus) B-lymphocytes isolated from the peripheral blood of normal human volunteers was isolated as described in Example 4. Cells were treated with Compound 1 for 24 h. For Western Blotting analysis of progranulin protein, 50 μg of total cellular protein were separated on a 4-12% Bis-Tris Poly-Acrylamide gel using MOPS Running Buffer, transferred to a PVDF membrane and probed with a R & D Systems (Minneapolis, Minn.) mouse monoclonal anti-human progranulin antibody, followed by an IRDye secondary antibody (Rockland). Detection was performed using the Li-COR Odyssey imaging system. Progranulin signals (Integrated Intensity after background subtraction) were quantified using Li-COR Odyssey software.

For data set [5], the system named is progranulin mRNA in primary fibroblasts from progranulin mutation carriers. Nature of the data set: Progranulin mRNA expression in primary fibroblasts from progranulin mutation carriers (qPCR). Type of data set: cell-based, human. To be noted: 3 μM, after 8 h. The method, then:
(§1) For analysis of progranulin mRNA expression, samples were analyzed as described in Example 1, with the exception that probes specific for the human granulin gene (Applied Biosystems, Carlsbad, Calif.) were used.
(§2) Primary fibroblasts from patients harboring different mutations in the progranulin gene were isolated and maintained in complete growth medium (cGM), comprised of D-MEM supplemented with 10% heat-inactivated FBS and 1% Penicillin/Streptomycin. The fibroblasts were seeded into 6-well tissue-culture plates at a density of 150,000-190,000 cells per well in cGM. Following overnight incubation, the cells were treated with 0.3 or 3 μM of Compound 1. Analysis of progranulin mRNA expression was performed as described in Example 4. Analysis of progranulin protein was performed as described in Example 4.

Data set [6] concerns progranulin protein in lymphoblasts from progranulin mutation carriers. Nature of the data set: Progranulin protein expression in FTLD patient lymphoblast cell lines (ELISA). Type of data set: cell-based, human. Particulars: 3 μM, after 24 h. The method, then:
(§3) Immortalized (Epstein-Barr-Virus) B-lymphocytes isolated from the peripheral blood of patients subject harboring different mutations in the granulin gene were used to measure effects of compounds on progranulin mRNA and protein expression. The cell lines were maintained in complete growth medium (cGM), comprised of RPMI 1640 medium supplemented with 15% heat-inactivated FBS, 4 mM L-Glutamine and 1% Penicillin/Streptomycin. Cells were seeded into 24-well tissue-culture plates at a density of 400,000-500,000 cells per well in cGM. Following an overnight incubation, the cells were treated with 0.3 or 3 μM of Compound 1. Following an 8- or 24-hour exposure to Compound 1, cells were collected, spun, and the resulting cell pellets underwent a single rinse in chilled PBS.
(§4) For analysis of progranulin protein expression, cell pellets were re-suspended in 150 μl of chilled RIPA Lysis Buffer supplemented with a protease-inhibitor cocktail and incubated for 15-20 minutes at 4° C. to allow for cell lysis. Total protein concentrations of each sample were determined by performing a BCA protein assay (Pierce). Quantitative determination of Progranulin protein levels was performed by ELISA (AdipoGen, Incheon, South Korea), using a 1:20 dilution of the cell lysate following the manufacturer protocol. […]

Data set [7] deals with progranulin protein in cerebral cortex. Briefly: Progranulin protein levels in mouse cerebral cortex (ELISA). Type of data set: in vivo, C57BL/6 mice. To be noted: normal mice, 100 mg/kg oral, 8 h after acute dosing. The method, then:
(§5) C57BL/6 mice (n=6/group; Charles River) were treated with either vehicle (1% carboxymethylcellulose-medium viscosity/0.5% Tween 80 (99.5:0.5 v/v)) or with an oral dose of 100 mg/kg of Compound 1 prepared in the same vehicle. Animals were sacrificed at specific time points and the brain extracted. Left and right hemisphere of the cerebral cortex were separated and used for RNA and protein extractions.
Proteins were extracted in 50 mM Tris pH 7.4/150 mM NaCl/0.1% SDS with protease inhibitors using an extraction ratio of 200 mg of brain tissue per ml buffer. Sample was spun for 20 minutes at 16,200 g and supernatant collected. Progranulin levels were measured using a 1:4 dilution of the tissue extract (FIG. 5B) with a mouse ELISA kit from Adipogen (Incheon, South Korea) according to the manufacturer instructions. Progranulin levels were normalized to total protein concentration as measured by the BCA method (Pierce).

A short description of data set [8]: Maximum Tolerated Dose in humans, oral dosing. The format is in vivo. To be noted: healthy volunteers.
For data set [9], the system named is progranulin protein in primary fibroblasts from progranulin mutation carriers. Briefly: Progranulin protein expression in primary fibroblasts from progranulin mutation carriers (ELISA). Type of data set: cell-based, human. To be noted: 0.3 μM, after 8 h. The method, then: For analysis of progranulin protein expression, cell pellets were re-suspended in 150 μl of chilled RIPA Lysis Buffer supplemented with a protease-inhibitor cocktail and incubated for 15-20 minutes at 4° C. to allow for cell lysis. Total protein concentrations of each sample were determined by performing a BCA protein assay (Pierce). Quantitative determination of Progranulin protein levels was performed by ELISA (AdipoGen, Incheon, South Korea), using a 1:20 dilution of the cell lysate following the manufacturer protocol. Progranulin levels were expressed relative to protein amount, and compound treatment groups were expressed relative to the vehicle-treated group.
as §2

For data set [10], the system named is progranulin protein in rat primary cortical neurons. Nature of the data set: Progranulin protein expression in rat primary cortical neurons (ELISA). Type of data set: cell-based. Particulars: 3 μM, after 8 h. The method, then:
(§6) Primary cortical (Cx) and hippocampal (Hp) neurons are derived from E17 Sprague-Dawley rats and cultured in 24-well plates (325,000 cells/well for Cx and 250,000 cells/well for Hp). Half of the medium is replaced with fresh medium every four days. On day 10 of culture, neurons are incubated in the presence of different concentrations (0.1-3 μM) of a compound of the invention, e.g., Compound 1, for 2-24 h. At specific time points, conditioned medium is removed and frozen until needed for ELISA assay. Cells are washed with PBS and RNA is extracted with Qiazol reagent using the RNeasy kit from Qiagen (Valencia, Calif.) following manufacturer instructions. RNA is then transcribed into cDNA using the high capacity cDNA reverse transcription kit from Applied Biosystems (Carlsbad, Calif.) according to kit instructions.
as §4

For data set [11], the system named is progranulin mRNA expression in primary cortical neurons. Nature of the data set: Progranulin mRNA expression by quantitative PCR in primary cortical neurons. Type of data set: cell-based, rat. To be noted: for increase in progranulin mRNA expression: after 8 h of treatment, primary cortical neurons. The method, then:
as §6
Relative progranulin gene expression is measured by quantitative PCR using rat-specific probes (Applied Biosystems, Carlsbad, Calif.) for the granulin gene and for Rp113a as a reference gene. The ΔΔCt method is used for calculations of relative gene expression levels (Pfaffl, Nucleic Acids Res., 2001). This method compares expression of the different genes (reference and gene of interest) in cells treated with vehicle versus the compound of the invention. Moreover, this measurement and analysis of mRNA levels is expected to be predictive of the expression of progranulin protein levels.
Neuronal granulin gene expression was measured at different time points as described in Example 1 (1, 4, 6, 8, 10, 18 and 24 h) following treatment with (Z)-4-(dibenzo[b,f][1,4]oxazepin-11-yl)-N-hydroxybenzamide

The subject of data set [12] is progranulin protein in CSF and plasma. Briefly: Progranulin levels in rat CSF and plasma (ELISA). Type of data set: in vivo, Sprague Dawley rats. To be noted: normal rats, 100 mg/kg intra-peritoneally. The method, then:
Sprague Dawley rats (n=12/group; Charles River) were dosed intra-peritoneally with either vehicle (Solutol HS 15/Ethanol (3:2 v/v)) or with a dose of 100 mg/kg of Compound 1 prepared in the same vehicle. EDTA-Plasma and CSF were collected after 4 and 8 hours of treatment, and progranulin levels were assessed by ELISA (Adipogen, Incheon, South Korea) using a 1:2 dilution for CSF (FIG. 6A) and a 1:25 dilution for plasma (FIG. 6B).

Data set [13] relates to progranulin mRNA in cerebral cortex. Briefly: Progranulin mRNA expression in mouse cerebral cortex (qPCR). To be noted: normal mice, 100 mg/kg oral, 8 h after acute dosing. Type of data set: in vivo, C57BL/6 mice. On the procedure: as §5
RNA was extracted with Qiazol reagent using the RNeasy lipid-rich tissue kit from Qiagen (Valencia, Calif.) following manufacturer instructions. RNA was then transcribed into cDNA using the high capacity cDNA reverse transcription kit from Applied Biosystems (Carlsbad, Calif.), according to kit instructions. Relative progranulin gene expression was measured by quantitative PCR using mouse-specific probes (Applied Biosystems, Carlsbad, Calif.) for the granulin gene, and for Rp113a as a reference gene. The ΔΔCt method was used for calculations of relative gene expression levels (Pfaffl, Nucleic Acids Res., 2001). This method compares expression of the different genes (reference and gene of interest) in animals treated with vehicle versus the compound of the invention (FIG. 5A).

Data set [14] deals with progranulin mRNA in lymphoblasts from progranulin mutation carriers. Nature of the data set: Progranulin mRNA expression in FTLD patient lymphoblast cell lines (qPCR). The format is cell-based, human. Particulars: 3 μM, after 24 h. On the procedure: as §3, §1

Where two headings read alike, the source gives them in different places. Some results are limits rather than exact numbers.

Consider `O=C(CCCCCCC(=O)Nc1ccccc1)NO` [SAHA], for which the “excess of plasma protein unbound ('free') drug required to produce acetylation of histones in the brain, compared to Compound 1” value in data set [1] is roughly 30 fold. In addition, the Kp in data set [2] (acute dosing experiments, read-out: brain:plasma (b:p) ratio) was roughly 0.1. Further, the “Maximum Tolerated Dose (MTD)” value in data set [3] is given as 400 mg.
Consider `O=C(NO)c1ccc(C2=Nc3ccccc3Oc3ccccc32)cc1` [Compound 1, (Z)-4-(dibenzo[b,f][1,4]oxazepin-11-yl)-N-hydroxybenzamide], for which the “increase in progranulin protein (western blot)” value in data set [4] (0.3 μM) was determined as 1.3 fold; in data set [4] (3 μM) it was 1.6 fold. The “increase in progranulin mRNA” value was 1.3 fold in data set [5] and 2.4 fold in data set [14]. Further, the “increase in progranulin protein expression” value in data set [6] was found to be 1.5 fold; in [9], 1.1 fold; in data set [10], 1.77 fold. Further, the “increase in progranulin protein levels in brain (cerebral cortex)” value in [7] is “about 1.16 fold”. Moreover, in data set [8], the “Maximum Tolerated Dose (MTD), not observed at highest dose used” value is greater than 400 mg. Besides, the Kp in data set [2] (acute and repeated dosing, read-out: brain:plasma (b:p) ratio for drug levels) was roughly 5. Moreover, the “increase in progranulin mRNA expression” value in data set [11] (0.3 μM) is reported as roughly 2 fold; in data set [11] (3 μM) it was roughly 5 fold. Moreover, the “increase in progranulin gene expression” value in data set [11] (lowest dose (0.1 μM), as soon as 4 h after treatment, sustained for 24 h) was roughly 40%. In addition, the “increase in CSF progranulin protein” value in [12] (4 h after acute dosing) was “about 1.9 fold”. The “increase in plasma progranulin protein levels” value in [12] (concomitantly (4 h after acute dosing)) was “about 1.4 fold”. In addition, the “increase in progranulin mRNA in brain (cerebral cortex)” value in data set [13] was 1.45 fold.
